Source: patent publication US9642874B2, “Compositions of selenoorganic compounds and methods of use thereof” (Alltech, Inc., priority 2014, dated 2017)

How the values were obtained:
Insr = Insr mRNA expression (QRT-PCR) in AML-12 cells; assay type: cell-based, mouse; details: insulin alone, 6 hours, without 8-CPT/Dex
Method: For RNA analysis of insulin receptor (Insr), insulin like growth factor receptor (Igf1r), and Glucose-6-Phosphatase (G6pc), AML-12 cells were amplified in ITS, Dex and FBS-containing DMEM/F12 media, and cultured on 24-well (6.7×10^4 cells/well) plates in 10% FBS ITS-free DMEM/F12 media with or without Dex overnight. These cells were treated with control (water) or various compounds (diluted in 10% FBS ITS-free DMEM/F12 media with or without Dex) for 6 hours, 24 hours, or 48 hours.
In some experiments, the AML-12 cells were washed twice with PBS after the compound treatments for 24 hours, and then incubated with selenium compounds (150 or 300 ppb of each compound) in the presence or absence of insulin (10 or 100 nM), 0.1 mM 8-CPT (Sigma), or 0.5 μM Dex in serum-free, glucose/phenol red-free DMEM media supplemented with 20 mM lactose and 2 mM pyruvate, and 15 mM HEPES (glucose-production media) for another 6 hours. After treatments, cell media were collected and subjected to glucose assays using Abcam glucose assay kit according to the manufacturer's protocol. […]
Total RNA from these cells was isolated using Trizol (Invitrogen) according to the manufacturer's protocol, and then incubated with DNase I to remove any potential contaminated genomic DNA. […] Three to six samples were analyzed in each treatment group. […]

AKT = test: Western blot of phosphorylated Akt in primary mouse hepatocytes; assay type: cell-based; details: 100 nM insulin 6 hours, or Compounds CDE both doses 24 hours + 6 hours
Method: (§1) The overnight-acclimated hepatocytes were washed twice with PBS (to remove any residual FBS and other additives in the TRL hepatocyte maintenance medium, pretreated with control (water) or selenium Compounds CDE (150 or 300 ppb of each selenium compound) in DMEM/F12 media supplemented with 10% fetal bovine serum (FBS) for 24 hr. These cells were then washed twice with PBS and incubated with the same dose of selenium Compounds CDE (150 or 300 ppb) in the presence or absence of insulin (10 or 100 nM, Sigma), 0.1 mM 8-CPT (Sigma) or 0.5 μM Dex (Sigma) in serum-free and glucose-free DMEM media (Invitrogen) supplemented with 20 mM lactose (Sigma) and 2 mM pyruvate (Sigma) and 15 mM HEPES (Sigma) for another 6 hours. […]
(§2) After the above described treatments, primary mouse hepatocytes were rinsed with ice-cold PBS and lysed in the ice-cold RIPA buffer containing complete proteinase and phosphatase inhibitors (Thermo-Fisher Scientific, Waltham, Mass.) on ice for 30 min Cell lysates were collected using a cell scraper and transfer pipette and then centrifuged at 12000×g for 30 min at 4° C. to remove the DNA pellet and obtain the protein extract. Protein levels in the supernatant of these cell lysates were determined using the Pierce Micro-BCA protein assay kit (Thermo Scientific-Piece Biotechnology, Rockford, Ill.) according to the manufacturer's protocol. […]

PDK1 = test: Western blot of pPdk1 in primary mouse hepatocytes; assay type: cell-based; details: 100 nM insulin 6 hours, or Compounds CDE both doses 24 hours + 6 hours
Method: as §1, §2

insulin: insulin (10 or 100 nM, Sigma) used as comparator and cotreatment
Insr expression (Insr): did not increase | pAktS473 protein level (in words) (AKT): significant increase | pPdk1 protein level (in words) (PDK1): significant increase
